In patent publication US20250129067A1 (Progentos Therapeutics, Inc., priority 2021, published 2025):

Tests used:
[1] = test system: Oligodendrocyte progenitor cells (OPCs); test: In vitro OPC differentiation assay, GPR17 expression (immunocytochemistry); details: 3 μM (10× concentration, final 0.3 μM); 72 hours; fold change over vehicle
PDGFRα = PDGFRα (Homo sapiens (Human), UniProt P16234); test: PDGFRα kinase enzyme assay (Promega PDGFRα Kinase Enzyme System, ADP-Glo); assay type: biochemical; details: 11-point dose response, 10,000 nM to 0.169 nM; 150 uM ATP; BLQ = below limit of quantitation; read-out: IC50 Values on PDGFRα Kinase Inhibition, IC50
Protocol: The PDGFRα enzyme assays were conducted per the manufacturer's directions (Promega PDGFRα Kinase Enzyme System and ADP Glo Assay Cat #V8011). […] 20 ng of purified PDGFRα protein was added to the test article. […] ADP-Glo was added to halt the kinase reaction and deplete the remaining ATP. Kinase detection reagent, containing luciferase and luciferin, was used to convert the ADP signal into luminescence. Luminescence was measured using a Molecular Devices Spectramax ID5 and compared to a standard curve to determine kinase activity. IC50s were calculated using Prism 9, Graphpad software.

Chain of PDGFRα (P16234 24-1089): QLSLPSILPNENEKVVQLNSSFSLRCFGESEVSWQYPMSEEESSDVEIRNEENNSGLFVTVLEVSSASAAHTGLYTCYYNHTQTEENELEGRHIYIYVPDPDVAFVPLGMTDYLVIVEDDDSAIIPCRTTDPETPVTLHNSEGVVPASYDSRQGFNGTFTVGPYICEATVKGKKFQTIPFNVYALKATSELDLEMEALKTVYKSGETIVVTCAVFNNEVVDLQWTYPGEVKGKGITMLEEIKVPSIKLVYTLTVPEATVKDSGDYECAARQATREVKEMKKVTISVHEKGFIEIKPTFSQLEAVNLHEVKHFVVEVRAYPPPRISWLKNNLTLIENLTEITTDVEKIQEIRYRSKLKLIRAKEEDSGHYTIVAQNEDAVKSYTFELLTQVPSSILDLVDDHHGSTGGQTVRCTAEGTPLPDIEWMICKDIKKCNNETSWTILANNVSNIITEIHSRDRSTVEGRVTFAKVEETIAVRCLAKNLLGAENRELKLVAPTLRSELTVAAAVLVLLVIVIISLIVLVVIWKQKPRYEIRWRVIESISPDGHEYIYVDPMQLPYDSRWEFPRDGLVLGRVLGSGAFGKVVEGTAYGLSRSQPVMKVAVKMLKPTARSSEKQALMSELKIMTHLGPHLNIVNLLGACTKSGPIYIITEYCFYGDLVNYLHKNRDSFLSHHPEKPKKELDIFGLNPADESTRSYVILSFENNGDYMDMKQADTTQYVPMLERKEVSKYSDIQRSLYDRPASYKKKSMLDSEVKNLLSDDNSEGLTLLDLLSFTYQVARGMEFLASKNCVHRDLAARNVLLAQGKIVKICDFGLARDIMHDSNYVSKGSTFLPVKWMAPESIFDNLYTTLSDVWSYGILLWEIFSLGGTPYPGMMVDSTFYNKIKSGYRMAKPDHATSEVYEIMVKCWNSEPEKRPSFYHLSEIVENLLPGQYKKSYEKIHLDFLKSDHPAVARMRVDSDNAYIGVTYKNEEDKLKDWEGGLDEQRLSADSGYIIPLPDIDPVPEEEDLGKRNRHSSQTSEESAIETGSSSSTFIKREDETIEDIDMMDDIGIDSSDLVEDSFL

Row | GPR17 Fold Induction (Over Vehicle; 3 μM) [1] | IC50 (PDGFRα) [µM] | Compound
1 | 4.75 | 2.97 | Cn1cc(-c2ccc3c(N4CC(c5ncc(Cc6ccccc6)cn5)C4)cnn3c2)cn1 [Compound 72, 3-[3-(5-benzylpyrimidin-2-yl)azetidin-1-yl]-6-(1-methyl-1H-pyrazol-4-yl)pyrazolo[1,5-a]pyridine]
2 | 3.34 | 6.59 | Cn1cc(-c2ccc3c(C4CCN(c5ncc(Cc6ccccc6)cn5)C4)cnn3c2)cn1 (centres unmarked) [Compound 75, 3-[1-(5-benzylpyrimidin-2-yl)pyrrolidin-3-yl]-6-(1-methyl-1H-pyrazol-4-yl)pyrazolo[1,5-a]pyridine]
3 | 6.18 | 0.923 | Cn1cc(-c2ccc3c(-c4ccn(-c5ncc(Cc6ccccc6)cn5)c4)cnn3c2)cn1 [Compound 76, 3-[1-(5-benzylpyrimidin-2-yl)-1H-pyrrol-3-yl]-6-(1-methyl-1H-pyrazol-4-yl)pyrazolo[1,5-a]pyridine]
4 | 6.74 | 0.0972 | C[C@@H](OC(=O)N1CCN(c2cnn3cc(-c4cnn(C)c4)ccc23)CC1)c1ccccc1F [Compound 81, (1R)-1-(2-Fluorophenyl)ethyl 4-[6-(1-methyl-1H-pyrazol-4-yl)pyrazolo[1,5-a]pyridin-3-yl]piperazine-1-carboxylate]
5 | 6.50 | 2.51 | [2H]c1c([2H])c([2H])c(C([2H])([2H])c2cnc(N3CCN(c4cnn5cc(-c6cnn(C)c6)ccc45)CC3)nc2)c([2H])c1[2H] [Compound 82]
6 | 6.49 | 0.948 | Cn1cc(-c2cc3ncc(N4CCN(C(=O)OC(C)(C)C)CC4)n3cn2)cn1 [Compound 83, tert-butyl 4-(7-(1-methyl-1H-pyrazol-4-yl)imidazo[1,2-c]pyrimidin-3-yl)piperazine-1-carboxylate]
7 | 0.82 | 1.57 | Cn1cc(-c2cc3ncc(N4CCCN(C(=O)OC(C)(C)C)CC4)n3cn2)cn1 [Compound 85, tert-butyl 4-(7-(1-methyl-1H-pyrazol-4-yl)imidazo[1,2-c]pyrimidin-3-yl)-1,4-diazepane-1-carboxylate]
8 | 2.90 | 1.6 | COCCn1cc(-c2cc3ncc(N4CCN(C(=O)OC(C)(C)C)CC4)n3cn2)cn1 [Compound 88, tert-butyl 4-(7-(1-(2-methoxyethyl)-1H-pyrazol-4-yl)imidazo[1,2-c]pyrimidin-3-yl)piperazine-1-carboxylate]
9 | 0.92 | > 10 | CC(C)(C)OC(=O)N1CCN(c2cnc3cc(C4CCOC4)ncn23)CC1 (centres unmarked) [Compound 90, tert-butyl 4-(7-(tetrahydrofuran-3-yl)imidazo[1,2-c]pyrimidin-3-yl)piperazine-1-carboxylate]
10 | 0.81 | > 10 | CC(C)(C)OC(=O)N1CCCN(c2cnc3cc(-c4cccnc4)ncn23)CC1 [Compound 92, tert-butyl 4-(7-(pyridin-3-yl)imidazo[1,2-c]pyrimidin-3-yl)-1,4-diazepane-1-carboxylate]
11 | 1.00 | > 10 | CC(C)(C)OC(=O)N1CCCN(c2cnc3cc(C4CCOC4)ncn23)CC1 (centres unmarked) [Compound 94, tert-butyl 4-(7-(tetrahydrofuran-3-yl)imidazo[1,2-c]pyrimidin-3-yl)-1,4-diazepane-1-carboxylate]
12 | 1.16 | > 10 | CN(CCN(C)c1cnc2cc(-c3cnn(C)c3)ncn12)C(=O)OC(C)(C)C [Compound 95, tert-butyl methyl(2-(methyl(7-(1-methyl-1H-pyrazol-4-yl)imidazo[1,2-c]pyrimidin-3-yl)amino)ethyl)carbamate]
13 | 0.50 | > 10 | CN(CCN(C)c1cnc2nc(-c3cnn(C)c3)ccn12)C(=O)OC(C)(C)C [Compound 96]
14 | 1.25 | > 10 | COCCn1cc(-c2cc3ncc(N(C)CCN(C)C(=O)OC(C)(C)C)n3cn2)cn1 [Compound 97, tert-butyl (2-((7-(1-(2-methoxyethyl)-1H-pyrazol-4-yl)imidazo[1,2-c]pyrimidin-3-yl)(methyl)amino)ethyl)(methyl)carbamate]
15 | 0.98 | > 10 | CN(CCN(C)c1cnc2nc(C3CCOC3)ccn12)C(=O)OC(C)(C)C (centres unmarked) [Compound 98]
16 | 0.62 | > 10 | CN(CCN(C)c1cnc2cc(-c3cccnc3)ncn12)C(=O)OC(C)(C)C [Compound 99, tert-butyl methyl(2-(methyl(7-(pyridin-3-yl)imidazo[1,2-c]pyrimidin-3-yl)amino)ethyl)carbamate]
17 | 0.83 | > 10 | CN(CCN(C)c1cnc2nc(C3CCOC3)ccn12)C(=O)OC(C)(C)C (centres unmarked) [Compound 100]
18 | 0.67 | 3.42 | COCCn1cc(-c2ccn3c(N4CCN(C(=O)OC(C)(C)C)CC4)cnc3n2)cn1 [Compound 101, tert-butyl 4-(7-(1-(2-methoxyethyl)-1H-pyrazol-4-yl)imidazo[1,2-a]pyrimidin-3-yl)piperazine-1-carboxylate]
19 | 0.58 | 6.98 | CC(C)(C)OC(=O)N1CCN(c2cnc3nc(-c4cccnc4)ccn23)CC1 [Compound 102, tert-butyl 4-(7-(pyridin-3-yl)imidazo[1,2-a]pyrimidin-3-yl)piperazine-1-carboxylate]
20 | 0.65 | > 10 | CC(C)(C)OC(=O)N1CCN(c2cnc3nc(C4CCOC4)ccn23)CC1 (centres unmarked) [Compound 103, tert-butyl 4-(7-(tetrahydrofuran-3-yl)imidazo[1,2-a]pyrimidin-3-yl)piperazine-1-carboxylate]
21 | 1.40 | 2.8 | Cc1cn(-c2ccn3c(N4CCN(C(=O)OC(C)(C)C)CC4)cnc3n2)cn1 [Compound 104, tert-butyl 4-(7-(4-methyl-1H-imidazol-1-yl)imidazo[1,2-a]pyrimidin-3-yl)piperazine-1-carboxylate]
22 | 0.46 | > 10 | COCCn1cc(-c2ccn3c(N4CCCN(C(=O)OC(C)(C)C)CC4)cnc3n2)cn1 [Compound 105, tert-butyl 4-(7-(1-(2-methoxyethyl)-1H-pyrazol-4-yl)imidazo[1,2-a]pyrimidin-3-yl)-1,4-diazepane-1-carboxylate]
23 | 0.72 | > 10 | CC(C)(C)OC(=O)N1CCCN(c2cnc3nc(-c4cccnc4)ccn23)CC1 [Compound 106]
24 | 0.58 | > 10 | CC(C)(C)OC(=O)N1CCCN(c2cnc3nc(C4CCOC4)ccn23)CC1 (centres unmarked) [Compound 107, tert-butyl 4-(7-(tetrahydrofuran-3-yl)imidazo[1,2-a]pyrimidin-3-yl)-1,4-diazepane-1-carboxylate]
25 | 0.54 | > 10 | CN(CCN(C)c1cnc2nc(-c3cnn(C)c3)ccn12)C(=O)OC(C)(C)C [Compound 108, tert-butyl methyl(2-(methyl(7-(1-methyl-1H-pyrazol-4-yl)imidazo[1,2-a]pyrimidin-3-yl)amino)ethyl)carbamate]
